Laboratory results: BindingDB's records for doi:10.1021/jm050224y (Philipps-Universitat Marburg, 2005)

Molecular target: T1, Dimer of Gag-Pol polyprotein [489-587] (Human immunodeficiency virus 1, UniProt P12497)
T1 construct: 489-587
Assay: Protease Inhibition Assay
Details: pH 5.5; 25 °C
Method: The inhibition assays were performed by mixing enzyme and fluorogenic substrate in the presence of inhibitor compounds. The hydrolysis of the substrate was recorded as an increase of the fluorescence intensity. Ki values were calculated from the IC50 values taken from a dose-response curve with the fluorescent assay using the equation Ki = (IC50 - [E]/2)/ (1 +[S]/Km), where [E] and [S] are the protease and substrate concentrations, Km is the Michaelis-Menten constant.

Row | SMILES | IC50 [µM] | Ki [µM]
1 | O=C(N[C@H](Cc1cccc(Br)c1)[C@@H](O)C[C@@H](CCc1ccc(Cl)cc1Cl)S(=O)(=O)c1ccc(F)cc1)[C@H]1CCCO1 [(2R)-N-{(1R,2S,4R)-1-(3-bromobenzyl)-6-(2,4-dichlorophenyl)-4-[(4-fluorophenyl)sulfonyl]-2-hydroxyhexyl}tetrahydrofuran-2-carboxamide] | > 40 | > 40
2 | O=C(N[C@@H](Cc1cccc(Br)c1)[C@H](O)C[C@H](CCc1ccc(Cl)cc1Cl)S(=O)(=O)c1ccc(F)cc1)[C@H]1CCCO1 [(2R)-N-{(1S,2R,4S)-1-(3-bromobenzyl)-6-(2,4-dichlorophenyl)-4-[(4-fluorophenyl)sulfonyl]-2-hydroxyhexyl}tetrahydrofuran-2-carboxamide] | 4.2 | 
3 | CC(C)CCS(=O)(=O)[C@@H](C)C[C@@H](O)[C@H](Cc1cccc(Br)c1)NC(=O)CCS(C)(=O)=O [N-{(1S,2R,4S)-1-(3-bromobenzyl)-2-hydroxy-4-[(3-methylbutyl)sulfonyl]pentyl}-3-(methylsulfonyl)propanamide] | > 40 | > 40
